ChEMBL document CHEMBL4184197 (Bioorg Med Chem, 2018)

Key:
[1] = target: Somatostatin receptor (Homo sapiens) (UniProt P35346+P30874+P31391+P30872+P32745); test: Binding affinity to somatostatin receptor (unknown origin) at 10 uM relative to control; type: protein assay
Salmonella typhimurium [2] = test: Mutagenicity in Salmonella typhimurium TA1535 in absence of rat liver S9 fraction by Ames test; type: toxicity, organism-based; conditions: salmonella enterica subsp. enterica serovar typhimurium
[3] = target: Melanocortin receptor 4 (Homo sapiens) (UniProt P32245); test: Binding affinity to recombinant human MC4 receptor at 10 uM after 120 mins by scintillation counting analysis relative to control
[4] = target: Prostaglandin G/H synthase 1 (Homo sapiens) (UniProt P23219); test: Binding affinity to recombinant human COX1 at 10 uM after 3 mins by fluorescence assay relative to control
[5] = target: Stromelysin-1 (Homo sapiens) (UniProt P08254); test: Binding affinity to human MMP3 at 10 uM after 30 mins by fluorescence assay relative to control
[6] = target: Adenosine receptor A1 (Homo sapiens) (UniProt P30542); test: Binding affinity to recombinant human A1 receptor at 10 uM after 60 mins by scintillation counting analysis relative to control
[7] = target: Tyrosine-protein phosphatase non-receptor type 1 (Homo sapiens) (UniProt P18031); test: Binding affinity to recombinant human phosphatase 1B at 10 uM after 30 mins by fluorescence assay relative to control
[8] = target: Sodium-dependent noradrenaline transporter (Homo sapiens) (UniProt P23975); test: Binding affinity to norepinephrine transporter (unknown origin) at 10 uM relative to control
[9] = target: 5-hydroxytryptamine receptor 1A (Homo sapiens) (UniProt P08908); test: Binding affinity to recombinant human 5-HT1A receptor at 10 uM after 60 mins by scintillation counting analysis relative to control
[10] = target: Histamine H2 receptor (Homo sapiens) (UniProt P25021); test: Binding affinity to recombinant human histamine H2 receptor at 10 uM after 120 mins by scintillation counting analysis relative to control
[11] = target: Kappa-type opioid receptor (Homo sapiens) (UniProt P41145); test: Binding affinity to human kappa opioid receptor at 10 uM after 60 mins by scintillation counting analysis relative to control
[12] = target: Neuromedin-K receptor (Homo sapiens) (UniProt P29371); test: Binding affinity to recombinant human NK3 receptor at 10 uM after 120 mins by scintillation counting analysis relative to control
[13] = target: Interstitial collagenase (Homo sapiens) (UniProt P03956); test: Binding affinity to human MMP1 at 10 uM after 20 mins by fluorescence assay relative to control
Caspase-3 (Homo sapiens) = Caspase-3 (Homo sapiens) (UniProt P42574); test: Binding affinity to recombinant human caspase 3 at 10 uM after 60 mins by fluorescence assay relative to control
[14] = target: Beta-1 adrenergic receptor (Homo sapiens) (UniProt P08588); test: Binding affinity to recombinant human beta1 receptor at 10 uM after 60 mins by scintillation counting analysis relative to control
[15] = target: D(3) dopamine receptor (Homo sapiens) (UniProt P35462); test: Binding affinity to recombinant human dopamine receptor D3 at 10 uM after 60 mins by scintillation counting analysis relative to control
Salmonella typhimurium [16] = test: Mutagenicity in Salmonella typhimurium TA100 in presence of rat liver S9 fraction by Ames test; type: toxicity, organism-based; conditions: salmonella enterica subsp. enterica serovar typhimurium
[17] = target: 5-hydroxytryptamine receptor 1B (Homo sapiens) (UniProt P28222); test: Binding affinity to recombinant human full length 5-HT1B receptor at 10 uM after 90 mins by scintillation counting analysis relative to control
[18] = target: 3',5'-cyclic-AMP phosphodiesterase 4D (Homo sapiens) (UniProt Q08499); test: Binding affinity to recombinant human PDE4D2 at 10 uM after 20 mins by scintillation counting analysis relative to control
[19] = target: Prostaglandin G/H synthase 2 (Homo sapiens) (UniProt P35354); test: Binding affinity to recombinant human COX2 at 10 uM after 5 mins by fluorescence assay relative to control
[20] = target: 5-hydroxytryptamine receptor 2C (Homo sapiens) (UniProt P28335); test: Binding affinity to recombinant human 5-HT2C receptor at 10 uM after 60 mins by scintillation counting analysis relative to control
[21] = target: C-C chemokine receptor type 1 (Homo sapiens) (UniProt P32246); test: Binding affinity to recombinant human CCR1 receptor at 10 uM after 120 mins by scintillation counting analysis relative to control
[22] = target: Polyunsaturated fatty acid 5-lipoxygenase (Homo sapiens) (UniProt P09917); test: Binding affinity to recombinant human 5-LOX at 10 uM after 90 mins by fluorescence assay relative to control
[23] = target: Disintegrin and metalloproteinase domain-containing protein 17 (Homo sapiens) (UniProt P78536); test: Binding affinity to recombinant human TACE at 10 uM after 5 mins by fluorescence assay relative to control
[24] = target: 5-hydroxytryptamine receptor 6 (Homo sapiens) (UniProt P50406); test: Binding affinity to recombinant human 5-HT6 receptor at 10 uM after 120 mins by scintillation counting analysis relative to control
Salmonella typhimurium [25] = test: Mutagenicity in Salmonella typhimurium TA1535 in presence of rat liver S9 fraction by Ames test; type: toxicity, organism-based; conditions: salmonella enterica subsp. enterica serovar typhimurium
[26] = target: D(1B) dopamine receptor (Homo sapiens) (UniProt P21918); test: Binding affinity to recombinant human dopamine receptor D5 at 10 uM after 60 mins by scintillation counting analysis relative to control
[27] = target: Histone deacetylase 11 (Homo sapiens) (UniProt Q96DB2); test: Binding affinity to recombinant human HDAC11 at 10 uM after 30 mins by fluorescence analysis relative to control
[28] = target: NAD-dependent protein deacetylase sirtuin-2 (Homo sapiens) (UniProt Q8IXJ6); test: Binding affinity to surtuin-2 (unknown origin) at 10 uM by relative to control
[29] = target: 5-hydroxytryptamine receptor 7 (Homo sapiens) (UniProt P34969); test: Binding affinity to recombinant human 5-HT7 receptor at 10 uM after 120 mins by scintillation counting analysis relative to control
[30] = target: Secretory phospholipase A2 receptor (Homo sapiens) (UniProt Q13018); test: Binding affinity to recombinant human sPLA2 receptor at 10 uM after 20 mins by spectrophotometric analysis relative to control
[31] = target: 3-hydroxy-3-methylglutaryl-coenzyme A reductase (Homo sapiens) (UniProt P04035); test: Binding affinity to HMG-CoA reductase (unknown origin) at 10 uM by relative to control
[32] = target: NAD-dependent protein deacetylase sirtuin-1 (Homo sapiens) (UniProt Q96EB6); test: Binding affinity to surtuin-1 (unknown origin) at 10 uM by relative to control
[33] = target: Neuropeptide Y receptor type 2 (Homo sapiens) (UniProt P49146); test: Binding affinity to human Y2 receptor at 10 uM after 60 mins by scintillation counting analysis relative to control
[34] = target: cGMP-specific 3',5'-cyclic phosphodiesterase (Homo sapiens) (UniProt O76074); test: Binding affinity to human PDE5 at 10 uM after 60 mins by scintillation counting analysis relative to control

NAD-dependent protein deacetylase sirtuin-2 (Homo sapiens), sequence (Q8IXJ6 whole entry): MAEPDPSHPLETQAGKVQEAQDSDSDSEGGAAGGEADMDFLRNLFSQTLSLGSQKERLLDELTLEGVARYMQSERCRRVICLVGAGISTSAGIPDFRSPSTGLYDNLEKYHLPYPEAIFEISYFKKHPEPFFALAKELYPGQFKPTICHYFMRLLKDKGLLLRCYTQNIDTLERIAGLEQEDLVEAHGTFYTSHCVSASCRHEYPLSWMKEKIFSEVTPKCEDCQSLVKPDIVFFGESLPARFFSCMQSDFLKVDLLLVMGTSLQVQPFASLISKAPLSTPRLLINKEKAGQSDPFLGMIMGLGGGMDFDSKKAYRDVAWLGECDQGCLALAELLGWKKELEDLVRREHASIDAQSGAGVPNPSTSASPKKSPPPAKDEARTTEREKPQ
5-hydroxytryptamine receptor 2C (Homo sapiens), sequence (P28335 whole entry): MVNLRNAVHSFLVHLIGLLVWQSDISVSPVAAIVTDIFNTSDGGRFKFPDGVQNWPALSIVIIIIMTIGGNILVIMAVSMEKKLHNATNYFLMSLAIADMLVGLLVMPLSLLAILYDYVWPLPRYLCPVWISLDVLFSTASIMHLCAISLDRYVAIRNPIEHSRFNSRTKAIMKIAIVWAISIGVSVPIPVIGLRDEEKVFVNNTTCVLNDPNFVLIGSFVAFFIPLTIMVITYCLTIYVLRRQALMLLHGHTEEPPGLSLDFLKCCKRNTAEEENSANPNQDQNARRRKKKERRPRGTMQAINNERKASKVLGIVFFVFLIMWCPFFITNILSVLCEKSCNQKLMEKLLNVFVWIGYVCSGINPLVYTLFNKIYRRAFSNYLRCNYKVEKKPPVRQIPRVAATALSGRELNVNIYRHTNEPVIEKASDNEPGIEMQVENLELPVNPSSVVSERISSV
C-C chemokine receptor type 1 (Homo sapiens), sequence (P32246 whole entry): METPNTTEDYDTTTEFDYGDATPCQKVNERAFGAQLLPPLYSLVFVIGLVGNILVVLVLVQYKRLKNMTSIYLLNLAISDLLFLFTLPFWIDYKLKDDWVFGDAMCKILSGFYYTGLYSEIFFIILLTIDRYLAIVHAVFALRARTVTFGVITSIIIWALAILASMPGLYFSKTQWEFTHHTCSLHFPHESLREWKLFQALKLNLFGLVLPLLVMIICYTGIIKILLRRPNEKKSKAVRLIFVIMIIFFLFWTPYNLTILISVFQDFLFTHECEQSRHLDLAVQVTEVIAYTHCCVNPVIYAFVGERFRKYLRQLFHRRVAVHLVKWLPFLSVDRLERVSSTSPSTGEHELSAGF
5-hydroxytryptamine receptor 1A (Homo sapiens), sequence (P08908 whole entry): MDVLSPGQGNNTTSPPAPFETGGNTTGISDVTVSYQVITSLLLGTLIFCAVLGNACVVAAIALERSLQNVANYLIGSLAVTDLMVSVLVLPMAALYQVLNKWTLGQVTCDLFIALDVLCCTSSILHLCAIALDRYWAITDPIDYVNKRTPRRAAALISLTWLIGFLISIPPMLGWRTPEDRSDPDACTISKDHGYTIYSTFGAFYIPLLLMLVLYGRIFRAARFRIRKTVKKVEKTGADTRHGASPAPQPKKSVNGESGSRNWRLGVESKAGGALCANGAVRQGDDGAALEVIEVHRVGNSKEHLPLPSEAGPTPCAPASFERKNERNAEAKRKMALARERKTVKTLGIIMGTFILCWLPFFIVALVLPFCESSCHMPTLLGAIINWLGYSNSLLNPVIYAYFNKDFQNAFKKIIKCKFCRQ
Tyrosine-protein phosphatase non-receptor type 1 (Homo sapiens), sequence (P18031 whole entry): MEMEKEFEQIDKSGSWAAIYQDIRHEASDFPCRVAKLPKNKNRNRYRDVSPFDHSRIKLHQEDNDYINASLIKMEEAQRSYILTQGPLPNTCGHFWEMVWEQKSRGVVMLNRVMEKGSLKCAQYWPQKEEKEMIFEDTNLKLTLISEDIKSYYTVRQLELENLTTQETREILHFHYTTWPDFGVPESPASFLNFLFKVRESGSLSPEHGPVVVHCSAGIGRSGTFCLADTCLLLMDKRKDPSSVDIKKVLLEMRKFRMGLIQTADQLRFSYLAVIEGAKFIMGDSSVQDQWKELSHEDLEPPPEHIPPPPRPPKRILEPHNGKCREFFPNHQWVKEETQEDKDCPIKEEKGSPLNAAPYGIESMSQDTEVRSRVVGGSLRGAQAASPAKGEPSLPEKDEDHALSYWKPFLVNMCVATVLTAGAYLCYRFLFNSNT
Stromelysin-1 (Homo sapiens), sequence (P08254 100-477 limits assumed): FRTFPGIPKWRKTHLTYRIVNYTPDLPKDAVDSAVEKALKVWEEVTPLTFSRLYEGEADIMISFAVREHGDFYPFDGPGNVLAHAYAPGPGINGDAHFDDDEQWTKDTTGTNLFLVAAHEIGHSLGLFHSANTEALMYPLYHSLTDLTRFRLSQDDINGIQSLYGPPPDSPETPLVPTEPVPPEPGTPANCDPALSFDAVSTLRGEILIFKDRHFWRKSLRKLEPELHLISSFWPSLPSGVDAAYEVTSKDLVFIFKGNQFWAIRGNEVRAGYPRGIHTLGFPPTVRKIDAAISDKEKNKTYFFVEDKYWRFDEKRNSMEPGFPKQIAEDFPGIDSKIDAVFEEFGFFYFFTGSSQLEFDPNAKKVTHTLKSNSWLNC
5-hydroxytryptamine receptor 6 (Homo sapiens), sequence (P50406 whole entry): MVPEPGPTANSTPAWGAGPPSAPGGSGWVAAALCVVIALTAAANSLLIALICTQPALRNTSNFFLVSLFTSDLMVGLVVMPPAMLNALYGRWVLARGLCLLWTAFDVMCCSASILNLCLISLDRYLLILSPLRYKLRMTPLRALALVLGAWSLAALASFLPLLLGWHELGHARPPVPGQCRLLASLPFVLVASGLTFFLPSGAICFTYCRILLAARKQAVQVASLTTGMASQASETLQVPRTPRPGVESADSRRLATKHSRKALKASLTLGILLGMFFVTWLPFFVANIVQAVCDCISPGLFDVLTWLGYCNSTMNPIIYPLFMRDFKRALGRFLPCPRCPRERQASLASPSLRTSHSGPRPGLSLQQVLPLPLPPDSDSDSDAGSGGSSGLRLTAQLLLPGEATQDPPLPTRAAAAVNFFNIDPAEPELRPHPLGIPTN
Beta-1 adrenergic receptor (Homo sapiens), sequence (P08588 whole entry, looked up): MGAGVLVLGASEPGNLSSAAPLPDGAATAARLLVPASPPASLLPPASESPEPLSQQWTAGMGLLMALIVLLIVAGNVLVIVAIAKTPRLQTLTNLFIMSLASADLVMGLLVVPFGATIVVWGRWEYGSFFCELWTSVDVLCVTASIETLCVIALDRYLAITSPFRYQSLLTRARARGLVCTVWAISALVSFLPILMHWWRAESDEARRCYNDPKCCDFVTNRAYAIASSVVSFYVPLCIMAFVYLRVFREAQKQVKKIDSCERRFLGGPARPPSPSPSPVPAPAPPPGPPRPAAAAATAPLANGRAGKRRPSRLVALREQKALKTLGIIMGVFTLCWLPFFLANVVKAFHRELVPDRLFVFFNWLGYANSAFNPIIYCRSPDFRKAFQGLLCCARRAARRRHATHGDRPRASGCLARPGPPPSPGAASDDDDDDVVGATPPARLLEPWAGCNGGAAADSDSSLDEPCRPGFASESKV
Prostaglandin G/H synthase 2 (Homo sapiens), sequence (P35354 whole entry, looked up): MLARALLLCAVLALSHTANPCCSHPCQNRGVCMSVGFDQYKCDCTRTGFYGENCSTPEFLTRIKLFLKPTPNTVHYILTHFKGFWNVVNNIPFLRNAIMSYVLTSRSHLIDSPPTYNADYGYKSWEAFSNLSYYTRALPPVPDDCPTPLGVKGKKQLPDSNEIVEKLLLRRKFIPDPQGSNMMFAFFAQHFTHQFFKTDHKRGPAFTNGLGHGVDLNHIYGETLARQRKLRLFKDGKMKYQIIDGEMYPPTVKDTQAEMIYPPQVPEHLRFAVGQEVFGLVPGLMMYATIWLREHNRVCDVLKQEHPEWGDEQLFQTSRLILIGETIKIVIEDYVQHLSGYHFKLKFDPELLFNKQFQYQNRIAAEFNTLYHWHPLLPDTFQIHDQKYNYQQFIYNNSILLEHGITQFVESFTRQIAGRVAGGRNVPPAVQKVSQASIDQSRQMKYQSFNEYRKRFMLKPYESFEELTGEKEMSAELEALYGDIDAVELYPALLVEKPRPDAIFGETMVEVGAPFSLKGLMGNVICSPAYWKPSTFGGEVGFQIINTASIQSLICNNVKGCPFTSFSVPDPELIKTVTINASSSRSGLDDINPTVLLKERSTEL
Sodium-dependent noradrenaline transporter (Homo sapiens), sequence (P23975 whole entry): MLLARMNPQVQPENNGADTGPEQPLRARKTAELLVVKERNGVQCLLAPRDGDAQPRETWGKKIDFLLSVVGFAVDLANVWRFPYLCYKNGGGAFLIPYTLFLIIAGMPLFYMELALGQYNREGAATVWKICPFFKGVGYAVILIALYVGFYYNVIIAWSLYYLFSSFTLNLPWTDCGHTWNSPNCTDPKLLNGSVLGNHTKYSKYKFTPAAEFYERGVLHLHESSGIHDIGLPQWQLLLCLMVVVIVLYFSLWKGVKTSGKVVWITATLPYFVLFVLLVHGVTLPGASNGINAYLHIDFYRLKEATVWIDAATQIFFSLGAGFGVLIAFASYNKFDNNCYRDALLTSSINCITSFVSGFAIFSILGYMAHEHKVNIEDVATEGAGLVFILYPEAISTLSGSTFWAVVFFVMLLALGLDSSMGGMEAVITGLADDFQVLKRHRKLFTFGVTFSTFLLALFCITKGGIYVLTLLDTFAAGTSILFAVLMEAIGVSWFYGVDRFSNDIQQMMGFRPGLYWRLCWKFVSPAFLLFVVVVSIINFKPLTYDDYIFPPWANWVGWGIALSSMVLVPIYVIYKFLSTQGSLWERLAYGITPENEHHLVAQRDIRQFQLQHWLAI
Histone deacetylase 11 (Homo sapiens), sequence (Q96DB2 whole entry): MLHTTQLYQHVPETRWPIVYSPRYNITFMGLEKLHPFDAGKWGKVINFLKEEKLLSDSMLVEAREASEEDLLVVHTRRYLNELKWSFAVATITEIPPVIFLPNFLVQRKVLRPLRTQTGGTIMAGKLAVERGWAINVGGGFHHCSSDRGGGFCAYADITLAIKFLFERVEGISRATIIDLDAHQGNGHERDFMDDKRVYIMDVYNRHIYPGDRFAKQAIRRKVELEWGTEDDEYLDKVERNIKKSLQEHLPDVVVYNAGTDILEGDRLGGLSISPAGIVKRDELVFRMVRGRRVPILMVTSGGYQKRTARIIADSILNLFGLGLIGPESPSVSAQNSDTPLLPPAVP

Structure (SMILES): CCOc1c(Cl)cc(C(=O)Nc2ccc(C(=O)O)c(C)c2)cc1OC(C)C
- Activity [1]: < 25%
- Activity (Salmonella typhimurium [2]): Non-Toxic
- Activity [3]: < 25%
- Activity [4]: < 25%
- Activity [5]: < 25%
- Activity [6]: < 25%
- Activity [7]: < 25%
- Activity [8]: < 25%
- Activity [9]: < 25%
- Activity [10]: < 25%
- Activity [11]: < 25%
- Activity [12]: < 25%
- Activity [13]: < 25%
- Activity (Caspase-3 (Homo sapiens)): < 25%
- Activity [14]: < 25%
- Activity [15]: < 25%
- Activity (Salmonella typhimurium [16]): Non-Toxic
- Activity [17]: < 25%
- Activity [18]: < 25%
- Activity [19]: < 25%
- Activity [20]: < 25%
- Activity [21]: < 25%
- Activity [22]: < 25%
- Activity [23]: < 25%
- Activity [24]: < 25%
- Activity (Salmonella typhimurium [25]): Non-Toxic
- Activity [26]: < 25%
- Activity [27]: < 25%
- Activity [28]: < 25%
- Activity [29]: < 25%
- Activity [30]: < 25%
- Activity [31]: < 25%
- Activity [32]: < 25%
- Activity [33]: < 25%
- Activity [34]: < 25%
